Reference: ChEMBL document CHEMBL1201862, “PubChem BioAssay data set” (2004)
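Assay format: 96-well plates, 48-hour exposure. GI50 is the concentration that inhibits growth by half.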 Activity calls are given as the source filed them. No stated cut-off is given here; in the data, active = GI50 up to about 1.1 µM and inactive = higher.

Assays:
Assay in all cases: NCI anticancer screen, dose series, 48 h
NCI/ADR-RES = test system: NCI/ADR-RES
OVCAR-5 = test system: OVCAR-5
SR = test system: SR
MOLT-4 = test system: MOLT-4
UO-31 = test system: UO-31
SNB-75 = test system: SNB-75
Hs-578T = test system: Hs-578T
RPMI-8226 = test system: RPMI-8226
786-0 = test system: 786-0
M14 = test system: M14
U-251 = test system: U-251
EKVX = test system: EKVX
PC-3 = test system: PC-3
DU-145 = test system: DU-145
A549 = test system: A549
NCI-H460 = test system: NCI-H460
BT-549 = test system: BT-549
LOX IMVI = test system: LOX IMVI
SK-OV-3 = test system: SK-OV-3
NCI-H226 = test system: NCI-H226
TK-10 = test system: TK-10
K562 = test system: K562
CCRF-CEM = test system: CCRF-CEM
T47D = test system: T47D
COLO 205 = test system: COLO 205
SK-MEL-2 = test system: SK-MEL-2
Malme-3M = test system: Malme-3M
SK-MEL-5 = test system: SK-MEL-5
HOP-62 = test system: HOP-62
SF-295 = test system: SF-295
NCI-H522 = test system: NCI-H522
SN12C = test system: SN12C
SW-620 = test system: SW-620
HCC 2998 = test system: HCC 2998
UACC-257 = test system: UACC-257
NCI-H23 = test system: NCI-H23
RXF 393 = test system: RXF 393
HL-60 = test system: HL-60
HT-29 = test system: HT-29
MDA-MB-231 = test system: MDA-MB-231
ACHN = test system: ACHN
OVCAR-8 = test system: OVCAR-8
HOP-92 = test system: HOP-92
UACC-62 = test system: UACC-62
A498 = test system: A498
HCT-116 = test system: HCT-116
SNB-19 = test system: SNB-19
SK-MEL-28 = test system: SK-MEL-28
HCT-15 = test system: HCT-15
IGROV-1 = test system: IGROV-1
MCF7 = test system: MCF7
SF-268 = test system: SF-268
CAKI-1 = test system: CAKI-1
OVCAR-3 = test system: OVCAR-3
KM12 = test system: KM12
OVCAR-4 = test system: OVCAR-4
SF-539 = test system: SF-539
MDA-MB-435 = test system: MDA-MB-435

Measured: GI50

Cc1cn(CC2=NC3CCCCC3N2)c(=O)[nH]c1=O (centres undefined)
inactive: NCI/ADR-RES > 100 µM | OVCAR-5 > 100 µM | SR > 100 µM | MOLT-4 > 100 µM | UO-31 > 100 µM | SNB-75 > 100 µM | Hs-578T > 100 µM | RPMI-8226 > 100 µM | 786-0 > 100 µM | M14 > 100 µM | U-251 > 100 µM | EKVX > 100 µM | PC-3 > 100 µM | DU-145 > 100 µM | A549 > 100 µM | NCI-H460 > 100 µM | BT-549 > 100 µM | LOX IMVI > 100 µM | SK-OV-3 > 100 µM | NCI-H226 > 100 µM | TK-10 > 100 µM | K562 > 100 µM | CCRF-CEM > 100 µM | T47D > 100 µM | COLO 205 > 100 µM | SK-MEL-2 > 100 µM | Malme-3M > 100 µM | SK-MEL-5 > 100 µM | HOP-62 > 100 µM | SF-295 > 100 µM | NCI-H522 > 100 µM | SN12C > 100 µM | SW-620 > 100 µM | HCC 2998 > 100 µM | UACC-257 > 100 µM | NCI-H23 > 100 µM | RXF 393 > 100 µM | HL-60 > 100 µM | HT-29 > 100 µM | MDA-MB-231 > 100 µM | ACHN > 100 µM | OVCAR-8 > 100 µM | HOP-92 > 100 µM | UACC-62 > 100 µM | A498 > 100 µM | HCT-116 > 100 µM | SNB-19 > 100 µM | SK-MEL-28 > 100 µM | IGROV-1 > 100 µM | MCF7 > 100 µM | SF-268 > 100 µM
> 100 µM: HCT-15

Brc1cccc(Nc2nc(-c3cccs3)nc3ccc(Br)cc23)c1
26.5 µM: HCT-15
inactive: NCI/ADR-RES 30.7 µM | OVCAR-5 25.2 µM | SR 1.48 µM | MOLT-4 26.6 µM | UO-31 47 µM | SNB-75 41.2 µM | Hs-578T 38.8 µM | RPMI-8226 44.9 µM | 786-0 28.2 µM | M14 25.5 µM | CAKI-1 23.1 µM | U-251 31.5 µM | EKVX 15 µM | PC-3 31.9 µM | DU-145 36.1 µM | A549 29.5 µM | NCI-H460 21.7 µM | OVCAR-3 16.1 µM | BT-549 80.9 µM | LOX IMVI 31.3 µM | SK-OV-3 > 100 µM | NCI-H226 31.4 µM | TK-10 24.7 µM | K562 38.2 µM | CCRF-CEM 1.51 µM | T47D 9.89 µM | COLO 205 33 µM | SK-MEL-2 32.1 µM | Malme-3M 25.4 µM | SK-MEL-5 14 µM | HOP-62 32.1 µM | SF-295 19.9 µM | NCI-H522 19 µM | SN12C 22.7 µM | SW-620 26.9 µM | HCC 2998 20.2 µM | UACC-257 26.6 µM | NCI-H23 36.9 µM | KM12 18 µM | OVCAR-4 27.8 µM | HL-60 1.28 µM | HT-29 17.1 µM | MDA-MB-231 20.7 µM | ACHN 27.7 µM | OVCAR-8 47 µM | HOP-92 19.6 µM | UACC-62 17.8 µM | A498 31.7 µM | HCT-116 30.5 µM | SNB-19 31.1 µM | SF-539 31.8 µM | SK-MEL-28 25.2 µM | MDA-MB-435 16.6 µM | IGROV-1 26.7 µM | MCF7 14.2 µM | SF-268 26.3 µM
